Experimental data from patent US8871753B2, “Macrocyclic compounds and their use as kinase inhibitors” (Incyte Corporation, priority 2008, dated 2014).
Counter-ions that a name gives are not always drawn. Like-named read-outs stand apart in the source and are kept apart here.

Experiments:
Format in all cases: biochemical
[1] = target: T1, human JAK1 (a.a. 837-1142) (Homo sapiens, UniProt P23458); assay: In vitro JAK kinase assay (HTRF, phosphorylation of a biotinylated peptide), JAK1; details: read-out: JAK1 IC50
T1 construct: human JAK1 (a.a. 837-1142); His tag (N); made in house; host or cells: insect cells (baculovirus)
T1 sequence (P23458 849-1154): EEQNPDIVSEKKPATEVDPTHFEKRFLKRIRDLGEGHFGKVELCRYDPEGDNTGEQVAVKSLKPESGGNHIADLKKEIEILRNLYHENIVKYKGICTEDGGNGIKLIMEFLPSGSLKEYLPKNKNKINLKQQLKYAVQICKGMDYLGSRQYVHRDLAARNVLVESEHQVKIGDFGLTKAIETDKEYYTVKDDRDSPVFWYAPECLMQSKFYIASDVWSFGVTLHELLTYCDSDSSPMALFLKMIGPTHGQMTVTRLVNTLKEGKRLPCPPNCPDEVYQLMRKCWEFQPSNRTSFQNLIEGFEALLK
Outline: (§1)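 Phosphorylation of a biotinylated peptide by the JAK kinase domain, detected by HTRF with Eu-Py20 and SA-APC. ATP was 90 μM for JAK1, 30 μM for JAK2 and 3 μM for JAK3. Reactions ran 1 h at room temperature and were stopped with EDTA, followed by 40 min antibody binding.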

[2] = target: T2, human JAK2 (a.a. 828-1132) (Homo sapiens, UniProt O60674); assay: In vitro JAK kinase assay (HTRF, phosphorylation of a biotinylated peptide), JAK2
T2 construct: JAK2 (a.a. 828-1132); His tag (N); made in house; host or cells: insect cells (baculovirus)
T2 sequence (O60674 828-1132): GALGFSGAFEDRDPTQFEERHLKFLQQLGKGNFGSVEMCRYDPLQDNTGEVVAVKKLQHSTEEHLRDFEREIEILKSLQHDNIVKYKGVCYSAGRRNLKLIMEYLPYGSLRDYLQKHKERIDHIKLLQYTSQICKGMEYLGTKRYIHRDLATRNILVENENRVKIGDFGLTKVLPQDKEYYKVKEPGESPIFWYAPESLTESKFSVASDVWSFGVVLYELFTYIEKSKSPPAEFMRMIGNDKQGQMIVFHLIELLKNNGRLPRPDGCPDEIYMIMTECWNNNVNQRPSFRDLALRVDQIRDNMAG
Outline: as §1

[3] = target: T3, human JAK3 (a.a. 781-1124) (Homo sapiens, UniProt P52333); assay: In vitro JAK kinase assay (HTRF, phosphorylation of a biotinylated peptide), JAK3
T3 construct: JAK3 (a.a. 781-1124); His tag (N); made in house; host or cells: insect cells (baculovirus)
T3 sequence (P52333 781-1124): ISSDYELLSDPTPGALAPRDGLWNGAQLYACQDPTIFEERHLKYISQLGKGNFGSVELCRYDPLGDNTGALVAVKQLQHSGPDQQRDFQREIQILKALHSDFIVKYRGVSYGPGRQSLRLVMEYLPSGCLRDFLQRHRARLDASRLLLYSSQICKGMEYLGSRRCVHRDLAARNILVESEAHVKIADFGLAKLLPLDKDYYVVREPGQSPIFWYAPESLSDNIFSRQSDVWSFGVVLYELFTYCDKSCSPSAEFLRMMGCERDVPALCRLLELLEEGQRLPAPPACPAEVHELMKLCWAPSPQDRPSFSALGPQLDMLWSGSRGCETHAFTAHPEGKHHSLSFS
Outline: as §1

TYK2 = TYK2 (Homo sapiens, UniProt P29597); assay: TYK2 kinase inhibition (Table A1)
TYK2, sequence (P29597 whole entry): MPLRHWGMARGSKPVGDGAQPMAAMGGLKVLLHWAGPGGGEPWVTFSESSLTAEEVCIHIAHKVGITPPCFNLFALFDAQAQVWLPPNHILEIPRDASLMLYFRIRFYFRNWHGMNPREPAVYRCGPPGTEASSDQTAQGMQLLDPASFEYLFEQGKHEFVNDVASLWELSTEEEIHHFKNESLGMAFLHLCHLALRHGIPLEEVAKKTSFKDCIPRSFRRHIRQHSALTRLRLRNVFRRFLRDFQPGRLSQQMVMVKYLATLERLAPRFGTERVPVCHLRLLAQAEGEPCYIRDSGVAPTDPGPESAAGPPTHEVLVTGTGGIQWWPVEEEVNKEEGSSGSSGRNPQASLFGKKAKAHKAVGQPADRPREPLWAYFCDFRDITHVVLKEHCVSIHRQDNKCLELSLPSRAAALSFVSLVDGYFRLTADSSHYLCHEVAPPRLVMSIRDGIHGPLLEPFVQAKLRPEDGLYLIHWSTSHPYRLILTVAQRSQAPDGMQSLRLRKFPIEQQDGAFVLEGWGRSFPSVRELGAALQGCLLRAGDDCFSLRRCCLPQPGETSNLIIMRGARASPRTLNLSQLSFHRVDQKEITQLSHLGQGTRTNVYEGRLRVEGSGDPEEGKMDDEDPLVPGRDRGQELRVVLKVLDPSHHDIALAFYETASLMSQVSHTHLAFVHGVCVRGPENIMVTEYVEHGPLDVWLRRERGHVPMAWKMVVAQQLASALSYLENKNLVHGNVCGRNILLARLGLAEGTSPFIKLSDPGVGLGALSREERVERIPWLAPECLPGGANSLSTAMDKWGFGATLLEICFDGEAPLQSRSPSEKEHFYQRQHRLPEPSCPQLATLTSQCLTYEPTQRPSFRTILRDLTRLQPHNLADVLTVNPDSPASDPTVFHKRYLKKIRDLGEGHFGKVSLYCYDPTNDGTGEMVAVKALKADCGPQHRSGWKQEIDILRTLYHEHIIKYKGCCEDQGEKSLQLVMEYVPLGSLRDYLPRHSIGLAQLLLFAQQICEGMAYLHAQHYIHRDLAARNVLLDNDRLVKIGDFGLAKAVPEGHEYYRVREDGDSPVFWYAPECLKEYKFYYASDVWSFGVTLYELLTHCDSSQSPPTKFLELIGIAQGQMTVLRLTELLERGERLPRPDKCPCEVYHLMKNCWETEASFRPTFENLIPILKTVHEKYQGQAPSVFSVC

[4] = target: T4, Recombinant Human Anaplastic Lymphoma Kinase (Homo sapiens, UniProt Q9UM73); assay: ALK HTRF kinase assay
T4 construct: purchased Invitrogen, Carlsbad, Calif
T4 sequence (Q9UM73 19-1620): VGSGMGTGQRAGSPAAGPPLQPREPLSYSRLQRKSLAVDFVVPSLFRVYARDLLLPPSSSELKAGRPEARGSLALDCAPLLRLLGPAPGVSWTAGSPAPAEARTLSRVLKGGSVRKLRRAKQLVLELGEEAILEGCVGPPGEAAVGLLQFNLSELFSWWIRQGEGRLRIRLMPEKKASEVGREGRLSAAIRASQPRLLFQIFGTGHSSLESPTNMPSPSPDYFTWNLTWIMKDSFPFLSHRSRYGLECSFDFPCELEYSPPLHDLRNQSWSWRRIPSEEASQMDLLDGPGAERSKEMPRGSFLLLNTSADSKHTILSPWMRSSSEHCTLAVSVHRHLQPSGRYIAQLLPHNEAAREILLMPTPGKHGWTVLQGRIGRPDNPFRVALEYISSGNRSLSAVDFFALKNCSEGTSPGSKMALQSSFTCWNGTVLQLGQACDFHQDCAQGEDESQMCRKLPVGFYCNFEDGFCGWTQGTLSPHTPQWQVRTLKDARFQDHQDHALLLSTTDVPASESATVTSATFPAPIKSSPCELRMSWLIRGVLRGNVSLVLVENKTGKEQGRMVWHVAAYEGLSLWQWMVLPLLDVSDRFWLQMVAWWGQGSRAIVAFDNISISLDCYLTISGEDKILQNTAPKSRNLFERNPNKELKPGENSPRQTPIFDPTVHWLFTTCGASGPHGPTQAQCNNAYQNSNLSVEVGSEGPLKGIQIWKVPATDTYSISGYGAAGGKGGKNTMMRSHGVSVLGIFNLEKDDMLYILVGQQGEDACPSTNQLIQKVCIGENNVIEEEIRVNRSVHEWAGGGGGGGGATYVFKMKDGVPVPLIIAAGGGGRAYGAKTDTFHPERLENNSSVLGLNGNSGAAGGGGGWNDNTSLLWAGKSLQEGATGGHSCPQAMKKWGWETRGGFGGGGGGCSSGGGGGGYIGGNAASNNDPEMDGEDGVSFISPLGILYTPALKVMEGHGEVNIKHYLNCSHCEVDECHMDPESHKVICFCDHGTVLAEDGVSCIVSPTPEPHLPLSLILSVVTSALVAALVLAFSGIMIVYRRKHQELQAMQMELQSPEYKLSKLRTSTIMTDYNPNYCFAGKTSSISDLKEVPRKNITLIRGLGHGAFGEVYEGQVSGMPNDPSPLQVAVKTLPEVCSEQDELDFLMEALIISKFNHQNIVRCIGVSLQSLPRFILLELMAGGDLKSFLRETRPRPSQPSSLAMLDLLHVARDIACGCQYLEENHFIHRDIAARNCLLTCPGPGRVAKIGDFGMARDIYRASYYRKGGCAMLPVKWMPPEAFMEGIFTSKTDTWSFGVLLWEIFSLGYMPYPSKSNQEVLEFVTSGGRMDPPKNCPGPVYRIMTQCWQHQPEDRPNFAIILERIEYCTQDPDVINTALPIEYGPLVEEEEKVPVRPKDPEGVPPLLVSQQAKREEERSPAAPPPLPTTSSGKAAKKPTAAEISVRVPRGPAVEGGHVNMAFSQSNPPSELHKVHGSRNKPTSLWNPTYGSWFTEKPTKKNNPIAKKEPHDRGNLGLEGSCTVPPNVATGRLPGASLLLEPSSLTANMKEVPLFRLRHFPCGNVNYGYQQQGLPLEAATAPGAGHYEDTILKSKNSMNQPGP
Outline: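 Biotinylated peptide substrate, recombinant human ALK; detection via europium-chelate antibody to phosphotyrosine paired with streptavidin-APC. Potency expressed as IC50 from four-parameter curve fitting.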

Row | SMILES | IC50 [1] [nM] | IC50 [2] [nM] | IC50 [3] [nM] | IC50 (TYK2) [nM] | IC50 [4] [nM] | IC50 ([1]; Table D1) [nM] | IC50 ([2]; Table D1) [nM] | IC50 ([3]; Table D1) [nM] | IC50 (TYK2; Table D1) [nM] | IC50 ([4]; Table D1, 90 μM ATP) [nM]
1 | O=C1Nc2cccc(c2)Nc2ncc(Cl)c(n2)Nc2cccc1c2 [Example C1, 6-Chloro-2,4,8,15,22-pentaazatetracyclo[14.3.1.1(3,7).1(9,13)]docosa-1(20),3(22),4,6,9(21),10,12,16,18-nonaen-14-one hydrochloride] | > 1000 | 900 | > 1000 | > 1000 | > 10000 | – | – | – | – | –
2 | O=C1Nc2cccc(c2)Nc2nc(ncc2Cl)Nc2cccc1c2 [Example C2, 6-Chloro-2,4,8,14,22-pentaazatetracyclo[14.3.1.1(3,7).1(9,13)]docosa-1(20),3(22),4,6,9(21),10,12,16,18-nonaen-15-one hydrochloride] | > 1000 | > 1000 | > 1000 | > 1000 | > 1000 | – | – | – | – | –
3 | O=S1(=O)NCc2cccc(c2)Nc2nc(ncc2Cl)Nc2cccc1c2 [Example C3, 6-Chloro-16-thia-2,4,8,15,23-pentaazatetracyclo[15.3.1.1(3,7).1(9,13)]tricosa-1(21),3(23),4,6,9(22),10,12,17,19-nonaene 16,16-dioxide] | 81 | 37 | 115 | 91 | 6600 | – | – | – | – | –
4 | O=C1NCc2cccc(c2)Nc2ncc(Cl)c(n2)Nc2cccc1c2 [Example C4, 6-Chloro-2,4,8,15,23-pentaazatetracyclo[15.3.1.1(3,7).1(9,13)]tricosa-1(21),3(23),4,6,9(22),10,12,17,19-nonaen-14-one] | 361 | 350 | 317 | > 1000 | > 1000 | – | – | – | – | –
5 | O=C1NCc2cccc(c2)Nc2nc(ncc2Cl)Nc2cccc1c2 [Example C5, 6-Chloro-2,4,8,15,23-pentaazatetracyclo[15.3.1.1(3,7).1(9,13)]tricosa-1(21),3(23),4,6,9(22),10,12,17,19-nonaen-16-one hydrochloride] | > 1000 | > 1000 | > 1000 | > 1000 | > 1000 | – | – | – | – | –
6 | O=S1(=O)Nc2cccc(c2)Nc2nc(ncc2Cl)Nc2cccc1c2 [Example C6, 6-Chloro-15-thia-2,4,8,14,22-pentaazatetracyclo[14.3.1.1(3,7).1(9,13)]docosa-1(20),3(22),4,6,9(21),10,12,16,18-nonaene 15,15-dioxide trifluoroacetate] | 220 | 70 | 377 | 240 | > 10000 | – | – | – | – | –
7 | O=S1(=O)Nc2cccc(c2)Nc2ncc(Cl)c(n2)Nc2cccc1c2 [Example C7, 6-Chloro-14-thia-2,4,8,15,22-pentaazatetracyclo[14.3.1.1(3,7).1(9,13)]docosa-1(20),3(22),4,6,9(21),10,12,16,18-nonaene 14,14-dioxide trifluoroacetate] | 63 | 36 | 82 | 32 | 1900 | – | – | – | – | –
8 | O=S1(=O)Cc2cccc(c2)Nc2ncc(Cl)c(n2)Nc2cccc(c2)N1 [Example C9, 6-Chloro-15-thia-2,4,8,14,23-pentaazatetracyclo[15.3.1.1(3,7).1(9,13)]tricosa-1(21),3(23),4,6,9(22),10,12,17,19-nonaene 15,15-dioxide trifluoroacetate] | 144 | 93 | 412 | 353 | > 1000 | – | – | – | – | –
9 | O=C1Cc2cccc(c2)Nc2ncc(Cl)c(n2)Nc2cccc(c2)N1 [Example C10, 6-Chloro-2,4,8,14,23-pentaazatetracyclo[15.3.1.1(3,7).1(9,13)]tricosa-1(21),3(23),4,6,9(22),10,12,17,19-nonaen-15-one trifluoroacetate] | 154 | 303 | > 1000 | 60 | > 10000 | – | – | – | – | –
10 | O=C1Cc2cccc(c2)Nc2nc(ncc2Cl)Nc2cccc(c2)N1 [Example C11, 6-Chloro-2,4,8,16,23-pentaazatetracyclo[15.3.1.1(3,7).1(9,13)]tricosa-1(21),3(23),4,6,9(22),10,12,17,19-nonaen-15-one trifluoroacetate] | > 1000 | > 1000 | > 1000 | > 1000 | > 10000 | – | – | – | – | –
11 | Clc1cnc2nc1Nc1cccc(c1)SCc1cccc(c1)N2 [Example D1, 6-Chloro-14-thia-2,4,8,22-tetraazatetracyclo[14.3.1.1(3,7).1(9,13)]docosa-1(20),3(22),4,6,9(21),10,12,16,18-nonaene trifluoroacetate] | – | – | – | – | – | 13 | 9.6 | 16 | 14 | 620
12 | Clc1cnc2nc1Nc1cccc(c1)CSc1cccc(c1)N2 [Example D2, 6-Chloro-15-thia-2,4,8,22-tetraazatetracyclo[14.3.1.1(3,7).1(9,13)]docosa-1(20),3(22),4,6,9(21),10,12,16,18-nonaene trifluoroacetate] | – | – | – | – | – | 19 | 7.3 | 13 | 25 | 774
13 | [O-][S+]1Cc2cccc(c2)Nc2nc(ncc2Cl)Nc2cccc1c2 (centres unmarked) [Example D3, 6-Chloro-15-thia-2,4,8,22-tetraazatetracyclo[14.3.1.1(3,7).1(9,13)]docosa-1(20),3(22),4,6,9(21),10,12,16,18-nonaene 15-oxide trifluoroacetate] | – | – | – | – | – | 25 | 6.3 | 13 | 40 | 1110
14 | O=S1(=O)Cc2cccc(c2)Nc2nc(ncc2Cl)Nc2cccc1c2 [Example D4, 6-Chloro-15-thia-2,4,8,22-tetraazatetracyclo[14.3.1.1(3,7).1(9,13)]docosa-1(20),3(22),4,6,9(21),10,12,16,18-nonaene 15,15-dioxide trifluoroacetate] | – | – | – | – | – | 91 | 16 | 25 | 50 | 774
15 | Clc1cnc2nc1Nc1cccc(c1)COc1cccc(c1)N2 [Example D6, 6-Chloro-15-oxa-2,4,8,22-tetraazatetracyclo[14.3.1.1(3,7).1(9,13)]docosa-1(20),3(22),4,6,9(21),10,12,16,18-nonaene trifluoroacetate] | – | – | – | – | – | 36 | 37 | > 100 | 16 | 4190
16 | Clc1cnc2nc1Nc1cccc(c1)OCc1cccc(c1)N2 [Example D7, 6-Chloro-14-oxa-2,4,8,22-tetraazatetracyclo[14.3.1.1(3,7).1(9,13)]docosa-1(20),3(22),4,6,9(21),10,12,16,18-nonaene trifluoroacetate] | – | – | – | – | – | 100 | 61 | > 100 | > 100 | > 10000
17 | Clc1cnc2nc1Nc1cccc(c1)OCCc1cccc(c1)N2 [Example D8, 6-Chloro-14-oxa-2,4,8,23-tetraazatetracyclo[15.3.1.1(3,7).1(9,13)]tricosa-1(21),3(23),4,6,9(22),10,12,17,19-nonaene trifluoroacetate] | – | – | – | – | – | 7.9 | 5.4 | 13 | 19 | 351
18 | CN1c2cccc(c2)OCCc2cccc(c2)Nc2ncc(Cl)c1n2 [Example D9, 6-Chloro-8-methyl-14-oxa-2,4,8,23-tetraazatetracyclo[15.3.1.1(3,7).1(9,13)]tricosa-1(21),3(23),4,6,9(22),10,12,17,19-nonaene trifluoroacetate] | – | – | – | – | – | 183 | 47 | 489 | 137 | > 952
19 | Clc1cnc2nc1Nc1cccc(c1)OCCOc1cccc(c1)N2 [Example D10, 6-Chloro-14,17-dioxa-2,4,8,24-tetraazatetracyclo[16.3.1.1(3,7).1(9,13)]tetracosa-1(22),3(24),4,6,9(23),10,12,18,20-nonaene trifluoroacetate] | – | – | – | – | – | 8.2 | 2.4 | 10 | 8.1 | 791
20 | Clc1cnc2nc1Nc1cccc(c1)SCCOc1cccc(c1)N2 [Example D11, 6-Chloro-17-oxa-14-thia-2,4,8,24-tetraazatetracyclo[16.3.1.1(3,7).1(9,13)]tetracosa-1(22),3(24),4,6,9(23),10,12,18,20-nonaene trifluoroacetate] | – | – | – | – | – | 3.4 | 5.4 | 24 | 9.9 | 480
21 | Clc1cnc2nc1Nc1cccc(c1)SSc1cccc(c1)N2 [Example D12, 6-Chloro-14,15-dithia-2,4,8,22-tetraazatetracyclo[14.3.1.1(3,7).1(9,13)]docosa-1(20),3(22),4,6,9(21),10,12,16,18-nonaene trifluoroacetate] | – | – | – | – | – | 178 | 290 | 369 | 324 | > 10000
22 | [O-][S+]1CCOc2cccc(c2)Nc2ncc(Cl)c(n2)Nc2cccc1c2 (centres unmarked) [Example D13, 6-Chloro-17-oxa-14-thia-2,4,8,24-tetraazatetracyclo[16.3.1.1(3,7).1(9,13)]tetracosa-1(22),3(24),4,6,9(23),10,12,18,20-nonaene 14-oxide trifluoroacetate] | – | – | – | – | – | 3.6 | 2.1 | 24 | 12 | 1740
